Where “and” joins values, the source holds several entries; their conditions need not be identical. Equal entries are not always repeated.
How the values were obtained:
[1] = Pharmacokinetic study: plasma cannabinoids after single oral gavage of full-spectrum cannabis extract or individual cannabinoid; conditions: for half-life: t1/2, mouse plasma; for Detection in plasma following oral administration of the full-spectrum extract: single oral dose of extract
Method: Drugs were administered by oral gavage in a volume of 5 mL/kg. Wildtype male and female mice (postnatal day 21–28, P21-28) received a single oral gavage of either the full-spectrum cannabis extract or an individual cannabinoid. Cannabinoid doses within the full-spectrum extract or as an individual cannabinoid were as follows in mg/kg: CBDA and Δ^9-THCA, 50; CBD, 25; Δ^9-THC, 15; CBC, 9; CBDVA and CBGA, 7; CBN, 2.5; CBG, 1.5; CBDV and Δ^9-THCV, < 1 (Fig. 1a). At selected time points (15–240 min), mice were anesthetized with isoflurane and whole blood was collected by cardiac puncture. Plasma was isolated by centrifugation (9000 g for 10 min, 4 °C) and stored at − 80 °C until assayed.
Concentrations of cannabinoids in plasma samples were quantified as described previously, [24], [58]. […] The organic layer was isolated by centrifugation (4000 g for 10 min) and evaporated to dryness with N2. Samples were reconstituted in acetonitrile and 0.1% formic acid in water (1:3.3, v/v) for supported-liquid extraction (SLE) with methyl tert-butyl ether (MTBE) using Biotage Isolute SLE+ columns (Uppsala, SWE). […] Quantification of cannabinoids was achieved by comparing samples to standards prepared with known amounts of drug.
Plasma concentrations at each time point were averaged and pharmacokinetic parameters were calculated by noncompartmental analysis. Elimination rate constants were determined by linear regression of the terminal component of the concentration–time curve using GraphPad Prism 8.2 (La Jolla, USA). The log-linear trapezoidal method was used to calculated total drug exposure (area under concentration–time curve) using equations described previously.

[2] = Bidirectional transwell transport assay, wildtype MDCK cell monolayers; conditions: dog, MDCK
Method: (§1) We first aimed to determine whether the cannabinoids found in the full-spectrum cannabis extract were substrates of P-glycoprotein and BCRP by using MDCK cells expressing human P-glycoprotein or BCRP in vitro. Transwell assays were conducted to assess bidirectional transport of the cannabinoids detected in plasma following administration of the full-spectrum cannabis extract (CBD, CBDA, CBDVA, CBGA, Δ^9-THC and Δ^9-THCA), including the respective neutral compounds (CBDV and CBG) across wildtype, BCRP and P-glycoprotein MDCK cell monolayers. […] BCRP and P-glycoprotein preferentially transport substrates in the B > A direction.
(§2) Media in the donor chamber was then replaced with that containing 10 µM of an individual cannabinoid in the presence of either vehicle or inhibitor and returned to 37 °C. Aliquots (25 or 50 µL) were removed from the accepter chamber at 60, 120, 180 and 240 min.
(§3) Cannabinoids were analyzed as described above.

[3] = system: wildtype MDCK cells; test: as above; conditions: wildtype MDCK cells, 10 µM cannabinoid; for P (A > B): apical to basolateral
Method: as §1, §2, §3

[4] = biological target: T1, BCRP (Homo sapiens, UniProt Q9UNQ0); test: Bidirectional transwell substrate assay, MDCK cells expressing BCRP (with or without elacridar); conditions: for P (A > B) / P (B > A) / r (transport efflux ratio) / efflux ratio at 240 min, 10 µM: BCRP MDCK cells; for P (A > B): apical to basolateral; for P (B > A): basolateral to apical; for BCRP substrate status: human BCRP MDCK cells vs wildtype, with elacridar control; for efflux ratio at 240 min, 10 µM: human, r (transport efflux ratio)
T1 sequence (Q9UNQ0 1-655): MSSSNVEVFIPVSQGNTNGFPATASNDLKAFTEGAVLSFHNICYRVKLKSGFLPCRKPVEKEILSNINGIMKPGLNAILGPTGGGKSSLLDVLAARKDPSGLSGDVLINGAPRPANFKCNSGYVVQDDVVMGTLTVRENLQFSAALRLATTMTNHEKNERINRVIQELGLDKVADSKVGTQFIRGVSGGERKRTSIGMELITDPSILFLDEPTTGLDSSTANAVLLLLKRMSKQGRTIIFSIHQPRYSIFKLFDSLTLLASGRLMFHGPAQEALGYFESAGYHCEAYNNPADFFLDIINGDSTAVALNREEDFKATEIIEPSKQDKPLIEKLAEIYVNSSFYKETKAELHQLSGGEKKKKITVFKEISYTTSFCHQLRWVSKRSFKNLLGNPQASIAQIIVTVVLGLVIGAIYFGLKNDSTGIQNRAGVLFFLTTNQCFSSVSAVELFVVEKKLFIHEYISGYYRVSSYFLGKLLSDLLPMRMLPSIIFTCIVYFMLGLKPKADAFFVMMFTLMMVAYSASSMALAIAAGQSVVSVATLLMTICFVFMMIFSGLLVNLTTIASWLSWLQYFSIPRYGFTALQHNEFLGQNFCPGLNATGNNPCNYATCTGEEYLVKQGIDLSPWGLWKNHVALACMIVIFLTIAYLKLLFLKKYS
Method: as §1, §2, §3

[5] = biological target: P-glycoprotein (Homo sapiens, UniProt P08183); test: Bidirectional transwell substrate assay, MDCK cells expressing P-glycoprotein; conditions: for P (A > B): apical to basolateral; for P (B > A): basolateral to apical; for P-glycoprotein substrate status: human P-glycoprotein MDCK cells vs wildtype
Method: as §1, §2, §3

[6] = biological target: T1, BCRP; test: Inhibition of BCRP-mediated transport of CBDA by cannabinoids (transwell, BCRP MDCK cells)
Method: Cannabinoids were tested at 10 µM. […] Data are expressed as means ± SEM, with n = 4 per time point. […] Schematic created using BioRender.com.
as §3

[7] = system: Bcrp1; conditions: mouse Bcrp1; cited from earlier work
[8] = biological target: T1, BCRP; test: Inhibition of BCRP-mediated transport of prazosin (transwell, BCRP MDCK cells); conditions: for Effect on BCRP-mediated transport of prazosin: 10 µM, compared to vehicle
[9] = parameters: method as in PMID 33155722; conditions: healthy individuals, oral cannabis decoction and oil containing 3–6 times the amount of CBDA compared to CBD; cited from earlier work
[10] = both, mouse, plasma, po, AUC, mouse plasma, oral, administered as individual cannabinoid, doses mg/kg: CBD 25, CBDA 50, CBDVA 7, THC 15, THCA 50
[11] = both, mouse, plasma, po, AUC, mouse plasma, oral, administered in full-spectrum extract, doses mg/kg: CBD 25, CBDA 50, CBDVA 7, CBGA 7, THC 15, THCA 50
[12] = both, mouse, plasma, po, oral, administered as individual cannabinoid, doses mg/kg: CBD 25, CBDA 50, CBDVA 7, THC 15, THCA 50
[13] = both, mouse, plasma, po, oral, administered in full-spectrum extract, doses mg/kg: CBD 25, CBDA 50, CBDVA 7, CBGA 7, THC 15, THCA 50
[14] = both, mouse, plasma, po, tmax, mouse plasma, oral, administered as individual cannabinoid, doses mg/kg: CBD 25, CBDA 50, CBDVA 7, CBGA 7, THC 15, THCA 50
[15] = both, mouse, plasma, po, tmax, mouse plasma, oral, administered in full-spectrum extract, doses mg/kg: CBD 25, CBDA 50, CBDVA 7, CBGA 7, THC 15, THCA 50
[16] = mouse plasma, oral, equivalent doses
[17] = 10 µM cannabinoid, substrate threshold 1.5
[18] = with elacridar 10 µM, 10 µM cannabinoid in the presence of 10 µM elacridar
[19] = P-glycoprotein MDCK cells, 10 µM cannabinoid
[20] = mouse plasma, oral, administered as individual cannabinoid, doses mg/kg: CBD 25, CBDA 50, CBDVA 7, THC 15, THCA 50
[21] = mouse plasma, oral, administered in full-spectrum extract, doses mg/kg: CBD 25, CBDA 50, CBDVA 7, CBGA 7, THC 15, THCA 50
[22] = BCRP MDCK cells, cannabinoids tested at 10 µM

Chain of P-glycoprotein (P08183 whole entry): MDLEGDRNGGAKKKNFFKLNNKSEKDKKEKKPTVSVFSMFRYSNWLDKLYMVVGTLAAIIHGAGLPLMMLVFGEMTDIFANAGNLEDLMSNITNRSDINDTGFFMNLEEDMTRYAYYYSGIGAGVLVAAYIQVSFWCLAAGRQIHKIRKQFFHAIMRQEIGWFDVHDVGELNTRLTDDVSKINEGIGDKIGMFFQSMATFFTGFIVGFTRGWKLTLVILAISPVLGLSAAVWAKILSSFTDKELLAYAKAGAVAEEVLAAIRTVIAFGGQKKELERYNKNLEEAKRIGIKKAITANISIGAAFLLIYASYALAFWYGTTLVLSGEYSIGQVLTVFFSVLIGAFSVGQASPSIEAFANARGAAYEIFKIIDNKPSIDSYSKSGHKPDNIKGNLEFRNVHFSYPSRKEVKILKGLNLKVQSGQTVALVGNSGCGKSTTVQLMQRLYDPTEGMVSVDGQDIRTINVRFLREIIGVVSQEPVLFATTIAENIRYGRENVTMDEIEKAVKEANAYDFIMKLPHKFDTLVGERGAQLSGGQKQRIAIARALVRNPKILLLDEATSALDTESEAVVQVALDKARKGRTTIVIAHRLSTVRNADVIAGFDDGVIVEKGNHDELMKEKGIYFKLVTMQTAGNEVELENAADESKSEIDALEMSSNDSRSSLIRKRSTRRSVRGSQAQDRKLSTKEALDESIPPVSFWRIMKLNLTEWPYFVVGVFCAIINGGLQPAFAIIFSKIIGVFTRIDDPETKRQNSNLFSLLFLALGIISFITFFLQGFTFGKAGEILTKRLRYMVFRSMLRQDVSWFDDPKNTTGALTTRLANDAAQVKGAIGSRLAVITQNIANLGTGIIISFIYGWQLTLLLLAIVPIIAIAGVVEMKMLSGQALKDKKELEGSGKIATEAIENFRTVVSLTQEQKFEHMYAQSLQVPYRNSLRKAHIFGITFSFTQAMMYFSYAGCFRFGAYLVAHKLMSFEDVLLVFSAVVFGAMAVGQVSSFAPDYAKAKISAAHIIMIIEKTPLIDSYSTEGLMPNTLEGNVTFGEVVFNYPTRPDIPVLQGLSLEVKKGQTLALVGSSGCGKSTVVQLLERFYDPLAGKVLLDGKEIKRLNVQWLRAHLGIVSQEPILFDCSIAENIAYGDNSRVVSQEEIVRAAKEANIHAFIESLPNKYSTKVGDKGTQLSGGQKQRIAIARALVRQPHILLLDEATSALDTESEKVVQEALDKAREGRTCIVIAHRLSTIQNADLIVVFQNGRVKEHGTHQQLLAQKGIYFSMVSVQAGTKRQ

Compound | AUC [1, 10] | AUC [1, 11] | half-life [1, 12] | half-life [1, 13] | tmax [1, 14] | tmax [1, 15] | Total plasma exposure in full-spectrum extract relative to individual compound, fold lower [1, 16] | Detection in plasma following oral administration of the full-spectrum extract ([1]; mouse plasma) | Papp B→A at 240 min, 10 µM [2] | efflux ratio at 240 min, 10 µM [2] | P (A > B) [3] | P (A > B) ([4]; 10 µM cannabinoid) | P (B > A) ([4]; 10 µM cannabinoid) | r (transport efflux ratio) [4, 17] | BCRP substrate status [4] | efflux ratio at 240 min, 10 µM [4, 18] | P (A > B) [5, 19] | P (B > A) [5, 19] | P-glycoprotein substrate status [5] | Effect on BCRP-mediated transport of prazosin [8] | further results
C=C(C)[C@@H]1CCC(C)=C[C@H]1c1c(O)cc(CCCCC)cc1O [CBD, cannabidiol] | 1730 ng·h/mL | 717 ng·h/mL | 3.62 h | 8.07 h | 1.5 h | ≤ 1 h | 2–4 × | detected | 250 ± 30 ×10⁻⁶ cm/s | 0.6 ± 0.2 | 41 ± 5 × 10^−5 cm/s | 52 ± 8 × 10^−5 cm/s | 86 ± 20 × 10^−5 cm/s | 1.6 ± 0.3 | BCRP substrates | 1 ± 0.2 | 25 ± 7 × 10^−5 cm/s | 15 ± 3 × 10^−5 cm/s | not P-glycoprotein substrates | identified as an inhibitor of BCRP | Cmax ([1]; both, mouse, plasma, po, 25 mg/kg, Cmax, mouse plasma, oral, administered as individual cannabinoid, doses mg/kg: CBD 25, THC 15, THCA 50): 304 ± 28 ng/mL; Cmax ([1]; both, mouse, plasma, po, 25 mg/kg, Cmax, mouse plasma, oral, administered in full-spectrum extract, doses mg/kg: CBD 25, THC 15, THCA 50): 60 ± 6 ng/mL; efflux ratio at 240 min, 10 µM [4, 17]: > 1.5; Effect on BCRP-mediated transport of CBDA ([6]; 10 µM, BCRP MDCK cells, compared to vehicle): Neither CBD nor CBDVA affected CBDA transport via BCRP; r (transport efflux ratio) of CBDA in the presence of inhibitor ([6]; human, 240 min, 10 µM): 5.9 ± 0.1; Bcrp1 substrate status [7]: not a substrate of mouse Bcrp1
CCCCCc1cc(O)c2c(c1)OC(C)(C)[C@@H]1CCC(C)=C[C@@H]21 [Δ^9-THC, Δ^9-tetrahydrocannabinol, reference compound] |  |  |  |  |  |  | 2–4 × | detected |  |  | 9 ± 3 × 10^−5 cm/s | 54 ± 17 × 10^−5 cm/s | 74 ± 28 × 10^−5 cm/s | 1.4 ± 0.5 | weak substrates of BCRP |  | 9 ± 3 × 10^−5 cm/s | 4 ± 1 × 10^−5 cm/s | not P-glycoprotein substrates | not prazosin transport | tmax ([1]; mouse plasma, oral, administered as individual cannabinoid, doses mg/kg: CBD 25, CBDA 50, CBDVA 7, CBGA 7, THC 15, THCA 50): 1.5 h; AUC [1, 20]: 1930 ng·h/mL; t1/2 [1, 20]: 3.5 h; Cmax ([1]; mouse plasma, oral, administered as individual cannabinoid, doses mg/kg: CBD 25, THC 15, THCA 50): 341 ± 40 ng/mL; AUC [1, 21]: 1030 ng·h/mL; t1/2 [1, 21]: 5.5 h; tmax [1, 21]: ≤ 1 h; tmax ([1]; mouse plasma, oral, administered in full-spectrum extract, doses mg/kg: CBD 25, CBDA 50, CBDVA 7, CBGA 7, THC 15, THCA 50, listed as THC): 1 h; Cmax ([1]; mouse plasma, oral, administered in full-spectrum extract, doses mg/kg: CBD 25, THC 15, THCA 50): 127 ± 15 ng/mL; r (transport efflux ratio) [3]: 0.3 ± 0.3; P (B > A) ([3]; basolateral to apical): 3 ± 1 × 10^−5 cm/s; r (transport efflux ratio) ([4]; 10 µM cannabinoid in the presence of 10 µM elacridar): 0.7 ± 0.2; P (A > B) of CBDA in the presence of inhibitor [6, 22]: 21 ± 3 × 10^−5 cm/s; P (B > A) of CBDA in the presence of inhibitor [6, 22]: 47 ± 4 × 10^−5 cm/s; P (A > B) of prazosin in the presence of inhibitor ([8]; 10 µM inhibitor, 1 µM prazosin): 18 ± 2 × 10^−2 cm/s; P (B > A) of prazosin in the presence of inhibitor ([8]; 10 µM inhibitor, 1 µM prazosin): 201 ± 8 × 10^−2 cm/s
C=C(C)[C@@H]1CCC(C)=C[C@H]1c1c(O)cc(CCCCC)c(C(=O)O)c1O [CBDA, cannabidiolic acid] | 27300 ng·h/mL | 380000 ng·h/mL | 3.3 h | 5.17 h | 1.5 h | ≤ 1 h |  | detected | 370 ± 90 ×10⁻⁶ cm/s | 1.2 ± 0.3 | 31 ± 8 × 10^−5 cm/s | 38 ± 11 × 10^−5 cm/s | 162 ± 24 × 10^−5 cm/s |  | BCRP substrates | 0.4 ± 0.4 | 24 ± 7 × 10^−5 cm/s | 38 ± 4 × 10^−5 cm/s | not P-glycoprotein substrates |  | Cmax ([1]; both, mouse, plasma, po, Cmax, mouse plasma, oral, administered as individual cannabinoid, doses mg/kg: CBDA 50, CBDVA 7, CBGA 7): 6000 ± 1000 ng/mL; Cmax ([1]; both, mouse, plasma, po, Cmax, mouse plasma, oral, administered in full-spectrum extract, doses mg/kg: CBDA 50, CBDVA 7, CBGA 7): 47000 ± 4000 ng/mL; Total plasma exposure (AUC) in full-spectrum extract relative to individual compound, fold higher ([1]; mouse plasma, oral, 50 mg/kg, equivalent doses): ~14 × and 14 ×; r (transport efflux ratio) ([5]; P-glycoprotein MDCK cells, 10 µM cannabinoid, substrate threshold 2.5): 1.5 ± 0.3; efflux ratio at 240 min, 10 µM ([5]; human, MDCK-MDR1, r (transport efflux ratio), P-glycoprotein MDCK cells, 10 µM cannabinoid, substrate threshold 2.5): < 2.5; Serum CBDA concentrations relative to serum CBD concentrations [9]: 20–30 times
